Data set [1] has as its target Voltage-gated inwardly rectifying potassium channel KCNH2 (Homo sapiens, UniProt Q12809). In words: Displacement of [3H]bufuralol from hERG channel expressed in HEK293 cells.
In data set [2] the target is Cytochrome P450 2D6 (Homo sapiens, UniProt P10635). Put plainly: Displacement of [3H]bufuralol from CYP2D6. Format: ADME.
The nature of data set [3]: Ratio of Half life of compound in human liver microsome HHM0168 to half life in human liver microsome HHM0168 in presence of CYP2D6. Format: ADME. The following applies: microsomes. For orientation: Liver microsomes are vesicles of endoplasmic reticulum, rich in cytochrome P450 enzymes.
In data set [4] the target is Glutamate receptor ionotropic, NMDA 2B (Rattus norvegicus, UniProt P35439+Q00960). Put plainly: Displacement of [3H]racemic CP-101606 from rat NR2B receptor in P2 membrane. Format: cell membranes. For orientation: Displacement assays read how much labelled ligand stays bound in the presence of the test substance.
Data set [5] has as its target hERG (KCNH2) (Homo sapiens, UniProt Q12809). Put plainly: Blockade of hERG channel expressed in HEK293 cells by electrophysiological method. Format: cell-based. The following applies: HEK293 cells expressing hERG channel. Background: hERG is a cardiac potassium channel; its block is linked to QT prolongation.
Data set [6] relates to Rattus norvegicus. In words: Effect on haloperidol catalepsy in po dosed rat assessed as latency to paw withdrawal. The following applies: read-out: MED. Format: functional.

Sequence of Glutamate receptor ionotropic, NMDA 2B (Q00960 whole entry, one chain of several): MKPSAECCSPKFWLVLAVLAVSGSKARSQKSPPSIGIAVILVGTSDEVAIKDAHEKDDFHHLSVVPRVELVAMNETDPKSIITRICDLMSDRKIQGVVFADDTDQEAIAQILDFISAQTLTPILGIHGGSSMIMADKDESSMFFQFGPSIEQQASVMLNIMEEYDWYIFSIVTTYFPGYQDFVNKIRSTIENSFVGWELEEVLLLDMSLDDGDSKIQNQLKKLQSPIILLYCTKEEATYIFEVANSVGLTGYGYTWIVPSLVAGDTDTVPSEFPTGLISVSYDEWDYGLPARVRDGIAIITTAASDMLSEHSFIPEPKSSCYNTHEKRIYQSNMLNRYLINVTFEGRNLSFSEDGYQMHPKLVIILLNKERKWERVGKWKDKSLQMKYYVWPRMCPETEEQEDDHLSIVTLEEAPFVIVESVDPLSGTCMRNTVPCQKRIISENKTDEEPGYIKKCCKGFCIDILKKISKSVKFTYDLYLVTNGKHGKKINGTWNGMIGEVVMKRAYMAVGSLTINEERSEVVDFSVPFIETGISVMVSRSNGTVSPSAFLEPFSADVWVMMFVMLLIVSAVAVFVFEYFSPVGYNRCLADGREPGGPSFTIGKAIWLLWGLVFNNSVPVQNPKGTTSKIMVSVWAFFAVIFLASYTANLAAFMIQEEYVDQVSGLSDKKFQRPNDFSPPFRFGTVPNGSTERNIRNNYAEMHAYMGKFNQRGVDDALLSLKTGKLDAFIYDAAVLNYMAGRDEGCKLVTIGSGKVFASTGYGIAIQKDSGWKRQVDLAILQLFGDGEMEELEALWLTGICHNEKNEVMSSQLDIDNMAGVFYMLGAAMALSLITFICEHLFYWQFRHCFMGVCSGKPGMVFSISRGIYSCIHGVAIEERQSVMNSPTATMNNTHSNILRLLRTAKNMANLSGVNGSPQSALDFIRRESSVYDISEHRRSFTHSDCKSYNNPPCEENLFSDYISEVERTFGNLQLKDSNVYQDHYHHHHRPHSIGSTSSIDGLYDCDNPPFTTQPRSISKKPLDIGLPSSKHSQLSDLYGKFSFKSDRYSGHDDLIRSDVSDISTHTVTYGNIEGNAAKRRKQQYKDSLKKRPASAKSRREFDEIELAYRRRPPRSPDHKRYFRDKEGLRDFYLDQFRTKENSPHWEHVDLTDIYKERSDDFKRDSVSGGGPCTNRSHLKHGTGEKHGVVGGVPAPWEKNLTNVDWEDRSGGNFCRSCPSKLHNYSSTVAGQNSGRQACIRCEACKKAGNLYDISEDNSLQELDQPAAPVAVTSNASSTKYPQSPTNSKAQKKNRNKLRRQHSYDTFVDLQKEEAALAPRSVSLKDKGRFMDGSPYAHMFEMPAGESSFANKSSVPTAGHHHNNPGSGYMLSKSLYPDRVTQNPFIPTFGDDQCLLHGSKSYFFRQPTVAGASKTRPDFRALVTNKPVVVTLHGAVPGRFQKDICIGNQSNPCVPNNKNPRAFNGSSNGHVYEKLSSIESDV
Sequence of Cytochrome P450 2D6 (P10635 whole entry): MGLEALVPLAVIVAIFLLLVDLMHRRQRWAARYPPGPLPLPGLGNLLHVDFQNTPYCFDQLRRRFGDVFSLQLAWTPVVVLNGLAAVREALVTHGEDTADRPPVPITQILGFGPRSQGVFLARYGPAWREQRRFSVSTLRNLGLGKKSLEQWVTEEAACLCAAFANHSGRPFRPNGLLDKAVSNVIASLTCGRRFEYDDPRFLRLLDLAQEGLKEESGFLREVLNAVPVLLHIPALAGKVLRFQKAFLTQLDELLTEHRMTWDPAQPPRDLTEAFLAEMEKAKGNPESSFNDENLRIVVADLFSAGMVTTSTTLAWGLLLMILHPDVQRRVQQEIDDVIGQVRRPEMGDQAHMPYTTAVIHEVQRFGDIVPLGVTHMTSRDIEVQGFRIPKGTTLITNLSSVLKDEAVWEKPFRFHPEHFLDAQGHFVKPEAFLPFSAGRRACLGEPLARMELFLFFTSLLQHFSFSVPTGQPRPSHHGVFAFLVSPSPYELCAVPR
Sequence of Voltage-gated inwardly rectifying potassium channel KCNH2 (Q12809 whole entry): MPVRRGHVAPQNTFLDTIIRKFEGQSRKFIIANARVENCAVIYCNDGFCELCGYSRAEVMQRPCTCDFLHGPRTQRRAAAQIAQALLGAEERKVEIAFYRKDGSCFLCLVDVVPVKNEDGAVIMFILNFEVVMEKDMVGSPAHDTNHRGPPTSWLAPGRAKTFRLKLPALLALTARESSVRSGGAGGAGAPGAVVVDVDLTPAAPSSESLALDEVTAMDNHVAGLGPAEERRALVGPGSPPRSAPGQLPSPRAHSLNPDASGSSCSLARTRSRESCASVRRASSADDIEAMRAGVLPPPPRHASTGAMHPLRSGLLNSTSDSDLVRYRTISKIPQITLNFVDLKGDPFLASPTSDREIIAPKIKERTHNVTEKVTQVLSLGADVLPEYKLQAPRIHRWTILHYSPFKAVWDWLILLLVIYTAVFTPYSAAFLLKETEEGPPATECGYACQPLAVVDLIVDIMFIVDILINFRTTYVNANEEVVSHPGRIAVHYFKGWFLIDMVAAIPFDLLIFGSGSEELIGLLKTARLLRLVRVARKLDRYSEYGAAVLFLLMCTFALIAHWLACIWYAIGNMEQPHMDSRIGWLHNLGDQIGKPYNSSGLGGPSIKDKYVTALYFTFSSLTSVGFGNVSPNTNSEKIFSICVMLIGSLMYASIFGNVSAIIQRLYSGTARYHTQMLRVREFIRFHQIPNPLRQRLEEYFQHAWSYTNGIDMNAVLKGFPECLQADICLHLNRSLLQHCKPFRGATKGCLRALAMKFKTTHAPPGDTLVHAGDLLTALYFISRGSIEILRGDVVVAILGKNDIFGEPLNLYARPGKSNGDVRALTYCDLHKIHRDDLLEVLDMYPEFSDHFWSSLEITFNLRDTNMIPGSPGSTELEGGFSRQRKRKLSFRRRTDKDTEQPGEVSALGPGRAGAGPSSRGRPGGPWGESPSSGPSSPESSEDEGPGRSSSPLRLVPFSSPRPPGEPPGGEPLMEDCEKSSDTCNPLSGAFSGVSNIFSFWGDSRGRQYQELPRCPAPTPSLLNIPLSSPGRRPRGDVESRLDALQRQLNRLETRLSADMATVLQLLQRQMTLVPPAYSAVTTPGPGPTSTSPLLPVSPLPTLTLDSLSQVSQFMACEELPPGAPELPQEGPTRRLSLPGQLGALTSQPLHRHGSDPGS
Sequence of hERG (KCNH2) (Q12809 whole entry): as above

A word on the IC50: it is the concentration at which inhibition is half-maximal. Read a high IC50 as weaker potency in that assay. On to `CC(C(O)c1ccc2[nH]c(=O)oc2c1)N1CCC(O)(c2ccc(F)cc2)CC1` (racemic), for which the IC50 was 2600 nM in data set [1], 11000 nM in data set [2] and 41 nM in data set [4]. The Ratio in data set [3] is reported as 1.

`Cc1ccc(C2(O)CCN(C(C)C(O)c3ccc4c(c3)CCC(=O)N4)CC2)cc1` (racemic) came in with an IC50 in data set [4] of 9.1 nM.

By IC20 is commonly meant the concentration needed for an effect of 20%. A low value points to greater potency. Turning to `O=C1CCc2cc(C(O)CN3CCC(O)(c4cccc(F)c4)CC3)ccc2N1` (single isomer, unassigned; (-)), the IC50 was found to be 21000 nM in data set [1] and 5 nM in data set [4]. It took 1100 nM to reach the 20% level in data set [5] (IC20).

Molecule `CC(C(O)c1ccc(O)c(C(C)(C)C)c1)N1CCC(O)(c2ccc(F)cc2)CC1` (racemic) yielded an IC50 in data set [4] of over 5000 nM.

Regarding `CC(C(O)c1ccc2c(c1)OCC(=O)N2)N1CCC(O)(c2ccc(F)cc2)CC1` (racemic), the values for the IC50 in data set [1], in data set [2] and in data set [4] were 1600 nM, over 30000 nM and 8.7 nM, respectively. In addition, the Ratio in data set [3] turned out to be 1.

As to `CC(C(O)c1ccc2c(c1)CN(C)C(=O)N2)N1CCC(O)(c2ccc(F)cc2)CC1` (racemic), the IC50 in data set [1] is 3100 nM; in data set [2] it was over 30000 nM; in data set [4], 14 nM. The Ratio in data set [3] is reported as 1.

Take `COc1cccc(C2(O)CCN(C(C)C(O)c3ccc4c(c3)CCC(=O)N4)CC2)c1` (racemic): in data set [6], the minimal effective dose is 30 mg/kg. The same molecule returned an IC50 in data set [4] of 8.3 nM.

Consider `CC(C(O)c1ccc2c(c1)CNC(=O)N2)N1CCC(O)(c2ccc(F)cc2)CC1` (racemic), for which the IC50 was 7400 nM in data set [1], over 30000 nM in data set [2] and 9.1 nM in data set [4]. Further, in data set [3], the Ratio is 1.

For `CC(C(O)c1ccc2c(c1)COC(=O)N2)N1CCC(O)(c2ccc(F)cc2)CC1` (racemic), the figures for the IC50 in data set [1], in data set [2] and in data set [4] were 2400 nM, over 30000 nM and 18 nM, respectively. Further, the Ratio in data set [3] is listed as 1.

Turning to `CC(C(O)c1ccc(O)c(-c2ccccc2)c1)N1CCC(O)(c2ccc(F)cc2)CC1` (racemic), the IC50 in data set [2] is 8400 nM; in data set [4] it was 570 nM.

As for `CC(C(O)c1ccc2c(c1)CCC(=O)N2)N1CCC(O)(c2cccc(F)c2)CC1` (racemic), the minimal effective dose in data set [6] was 10 mg/kg. Besides, in data set [4], the IC50 came out at 10 nM.

In turn, `CC(C(O)c1ccc2c(c1)CCC(=O)N2)N1CCC(O)(c2cccc(COc3ccccc3)c2)CC1` (racemic) registered an IC50 in data set [4] of 6.3 nM.

With `O=C1CCc2cc(C(O)CN3CCC(O)(c4cccc(F)c4)CC3)ccc2N1` (single isomer, unassigned; (+)), the values for the IC50 in data set [1] and in data set [4] were 9800 nM and 6.8 nM, respectively.

As to `CC(C(O)c1ccc2c(c1)CCC(=O)N2)N1CCC(O)(c2ccc(F)cc2)CC1` (racemic), the IC50 in data set [2] was over 30000 nM; in data set [4] it was 11 nM.

Consider `CC(C(O)c1ccc(O)c(Cl)c1)N1CCC(O)(c2ccc(F)cc2)CC1` (racemic), for which the IC50 in data set [2] came to 3500 nM; in data set [4], 5.6 nM. The Ratio in data set [3] was found to be 1.6.

With `CC(C(O)c1ccc2c(c1)CCC(=O)N2)N1CCC(O)(c2ccc(Cl)cc2)CC1` (racemic), in data set [6], the minimal effective dose was 10 mg/kg. Moreover, the IC50 in data set [4] turned out to be 6.6 nM.

Regarding `CC(C(O)c1ccc2c(c1)CCC(=O)N2)N1CCC(O)(c2ccc3c(c2)COCC3)CC1` (racemic), the results for the IC50 in data set [1] and in data set [4] were 16000 nM and 15 nM, respectively. In addition, in data set [6], the minimal effective dose is over 30 mg/kg.

In data set [1], `C[C@@H]([C@@H](O)c1ccc(O)cc1)N1CCC(O)(c2ccccc2)CC1` [TRAXOPRODIL] displayed an IC50 of 10000 nM. In addition, it took 150 nM to reach the 20% level in data set [5] (IC20).

Regarding `O=C1CCc2cc(C(O)CN3CCC(O)(c4cccc(F)c4)CC3)ccc2N1` (racemic), the values for the IC50 in data set [1] and in data set [4] were 13000 nM and 4.5 nM, respectively.

`Cc1cc(C(O)C(C)N2CCC(O)(c3ccc(F)cc3)CC2)ccc1O` (racemic) showed an IC50 in data set [2] of under 300 nM.

For `Cc1cc(O)ccc1C(O)C(C)N1CCC(O)(c2ccc(F)cc2)CC1` (racemic), the IC50 in data set [2] was found to be 3900 nM; in data set [4], 16 nM. Further, the Ratio in data set [3] is given as over 4.5.

(Values after ChEMBL document CHEMBL1139807, “Discovery of (-)-6-[2-[4-(3-fluorophenyl)-4-hydroxy-1-piperidinyl]-1-hydroxyethyl]-3,4-dihydro-2(1H)-quinolinone--a potent NR2B-selective N-methyl D-aspartate (NMDA) antagonist for the treatment of pain” (Bioorg Med Chem Lett, 2007).)
